Source: the CheMixHub ionic liquid set
± gives the uncertainty stated by the source.

Assay: xn = mol fraction of the nth substance listed

CCCCCCCCn1cc[n+](C)c1.[Cl-] + CCCCCCCCn1cc[n+](C)c1.F[B-](F)(F)F
101 kPa, x1 = 1
Settings	electrical conductivity [S/m]	viscosity [mPa·s]
303 K	0.00213 ± 0.00018	–
308 K	0.00353 ± 0.00029	–
313 K	0.00562 ± 0.00046	–
318 K	0.00861 ± 0.0007	–
328.15 K	–	1367 ± 430

Cc1ccccc1 + CCCCCC[N+]1(C)CCCC1.O=S(=O)([N-]S(=O)(=O)C(F)(F)F)C(F)(F)F
Settings	viscosity [mPa·s]
308.15 K, 100 kPa, x1 = 1	0.509 ± 0.012

CCCCCCCCCCCCCC[P+](CCCCCC)(CCCCCC)CCCCCC.O=[N+]([O-])c1cn[n-]c1 + CCCCCC[n+]1ccn(C)c1.O=S(=O)([N-]S(=O)(=O)C(F)(F)F)C(F)(F)F
100 kPa
Settings	viscosity [mPa·s]
278.15 K, x2 = 0.7	830 ± 110
293.15 K, x2 = 0.203	790 ± 100

CCC(=O)[O-].CC[NH+]1CCNCC1 + CCCCO
Settings	viscosity [mPa·s]
313.15 K, 101 kPa, x2 = 0.6004	14.05 ± 0.24

CCCCCCCCCCCC[N+](C)(C)Cc1ccccc1.O=S(=O)([N-]S(=O)(=O)C(F)(F)F)C(F)(F)F + CCCCO
101 kPa
Settings	viscosity [mPa·s]
298.15 K, x1 = 1	1425 ± 200
303.15 K, x1 = 0.3015	34.1 ± 3.4
308.15 K, x1 = 0.3015	27.3 ± 2.7
308.15 K, x1 = 1	683 ± 88
313.15 K, x1 = 0.7485	198 ± 22
318.15 K, x1 = 0.1507	7.45 ± 0.75
318.15 K, x1 = 0.4494	37.6 ± 3.8
328.15 K, x1 = 0.9164	159 ± 17
333.15 K, x1 = 0.1507	4.83 ± 0.48
333.15 K, x1 = 0.4494	20.6 ± 2.1
333.15 K, x1 = 0.594	40.9 ± 4.1
338.15 K, x1 = 0.7485	63 ± 6.3
338.15 K, x1 = 1	118 ± 12
343.15 K, x1 = 0.7485	52.4 ± 5.3
348.15 K, x1 = 0.594	25.2 ± 2.5

FC1CC(F)(F)C(F)(F)C1(F)F (configuration not stated) + CCCC[N+]1(C)CCCC1.FC(F)(F)C(F)(F)[P-](F)(F)(F)(C(F)(F)C(F)(F)F)C(F)(F)C(F)(F)F
101 kPa
Settings	electrical conductivity [S/m]	viscosity [mPa·s]
298.1 K, x2 = 0	–	1.65 ± 0.07
298.1 K, x2 = 0.252	–	8.05 ± 0.36
298.1 K, x2 = 0.438	–	21.3 ± 0.9
298.1 K, x2 = 0.653	0.275 ± 0.006	–
298.1 K, x2 = 0.842	0.167 ± 0.003	–
303 K, x2 = 0.177	0.746 ± 0.015	–
303 K, x2 = 0.434	0.424 ± 0.008	–
303 K, x2 = 0.839	0.21 ± 0.004	–
303 K, x2 = 0.844	–	87.6 ± 3.9
308.1 K, x2 = 0.077	0.594 ± 0.012	–
313 K, x2 = 0.183	0.88 ± 0.018	–
318.1 K, x2 = 0.077	0.699 ± 0.014	–
318.1 K, x2 = 0.437	–	11.2 ± 0.46
318.1 K, x2 = 0.836	0.359 ± 0.007	–
323 K, x2 = 0.655	–	21.17 ± 0.87

Cc1ccccc1 + CCCC[N+]1(C)CCCC1.O=S(=O)([N-]S(=O)(=O)C(F)(F)F)C(F)(F)F
Settings	viscosity [mPa·s]
308.15 K, 100 kPa, x1 = 1	0.509 ± 0.012

OC[C@H]1O[C@@](CO)(O[C@H]2O[C@H](CO)[C@@H](O)[C@H](O)[C@H]2O)[C@@H](O)[C@@H]1O + CCCC[N+](C)(CCCC)CCCC.[Cl-] + O
viscosity [mPa·s], 101.3 kPa
Settings	x1 = 0.0003585, x2 = 0	x1 = 0.0007185, x2 = 0	x1 = 0.001078, x2 = 0	x1 = 0.00144, x2 = 0	x1 = 0.001799, x2 = 0	x1 = 0.002163, x2 = 0	x1 = 0.002507, x2 = 0
293.15 K	1.016 ± 0.016	1.038 ± 0.016	1.059 ± 0.016	1.081 ± 0.016	1.094 ± 0.016	1.112 ± 0.016	1.133 ± 0.016
298.15 K	0.906 ± 0.016	0.921 ± 0.016	0.935 ± 0.016	0.957 ± 0.016	0.972 ± 0.016	0.987 ± 0.016	1.006 ± 0.016
303.15 K	0.807 ± 0.015	0.817 ± 0.015	0.83 ± 0.015	0.847 ± 0.015	0.861 ± 0.015	0.878 ± 0.015	0.891 ± 0.015
308.15 K	0.725 ± 0.015	0.733 ± 0.015	0.745 ± 0.015	0.759 ± 0.015	0.772 ± 0.015	0.786 ± 0.015	0.8 ± 0.015
313.15 K	0.657 ± 0.015	0.664 ± 0.015	0.674 ± 0.015	0.683 ± 0.015	0.697 ± 0.015	0.71 ± 0.015	0.721 ± 0.015

CCCCCCCCCC(=O)O + CCCC[N+](CCCC)(CCCC)CCCC.[Cl-]
100 kPa
Settings	electrical conductivity, x2 = 0.25 [S/m]	viscosity, x2 = 0.25 [mPa·s]	viscosity, x2 = 0.333 [mPa·s]
293.15 K	0.00575 ± 0.00058	201 ± 37	–
303.15 K	0.00886 ± 0.00089	135 ± 18	–
313.15 K	0.0133 ± 0.0013	93.3 ± 7.8	155 ± 18
323.15 K	0.0194 ± 0.0019	65.9 ± 2.6	–
333.15 K	0.0277 ± 0.0028	47.5 ± 1.6	–
343.15 K	–	–	39.5 ± 1.9
